Counter-ions that a name gives are not always drawn.
Key:
TMK1 cells [1] = experiment: TMK1 cell migration in Boyden's chamber; type: cell-based; details: 4 hours
Description: TMK1 cells, low-differentiating epithelial cells, were treated with trypsin. […] The culture medium in the lower well was then subjected to fixing and staining, and cells which had migrated therein were counted. Experiments were conducted concurrently in three chambers.
Each value will be presented as a mean ±S.D. and with respect to each compound, numbers of cells will be presented in the order of a) control, b) each pyrimidine compound (whose concentration will be specifically indicated), c) 10 ng/ml of EGF, and d) a mixed solution of each pyrimidine compound + EGF.

[2] = test system: primary cultured gastric mucosal cells; experiment: Wound repair model with primary cultured gastric mucosal cells; type: cell-based, rabbit; details: for area of the wounded region (mean±S.D.): EGF alone 10 ng/ml
Description: Primary cultured gastric mucosal cells were prepared by mechanically peeling and mincing the gastric mucosa of a rabbit having a body weight of 2 kg and then digesting the minced gastric mucosa with 0.07% collagenase. The primary cultured gastric mucosal cells were cultured at a cell concentration of 3.3×10^5 cells/ml in F-12 culture medium containing 10% fetal calf serum added therein. For this cultivation, a culture dish (60 mm in diameter) coated with collagen type I was used. […] Using an anti-BrdU antibody, the cells in the S phase were stained to identify proliferated cells.
Their effects on the process of restoration were measured under the above-described parameters. […] In each of the control group and the medicament-added groups, the area of the wounded region was measured at the 0th hour, 12th hour, 24th hour, 36th hour and 48th hour. The measurement results will be given in this order.
The control group and the groups added with the medicament at the respective concentrations were each subjected to the experiment with n=5. The results will each be presented as a (mean±S. D.) mm2. A test of significance was conducted relative to the control group. * stands for p<0.05, ** for p<0.01, *** for p<0.001. A further test of significance was conducted relative to a group added with 10 ng/ml of EGF. + stands for p<0.05, and ++ for <0.01.

TMK1 cells [3] = experiment: Morphological change of TMK1 cells; type: cell-based; details: EGF alone 10 ng/ml, day 1
PDGF-A mRNAs [4] = experiment: Polysome distribution (translation) of PDGF-A mRNAs in rat SMCs; type: cell-based
Description: SMCs were prepared following the method proposed by Ross and Klebanoff in "J. Cell. […] A rat thoracic aorta was excised. After the tunica externa was peeled off, the tunica media and the tunica intima were minced into 2-3 mm^2. The minced sections were placed standstill in a 25-cm^2 flask which contained Waymouth's MB 752/1 medium containing 10% FBS and 80 ng/ml of gentamycin (product of Schering-Plough Corp.), followed by incubation at 37° C. for 2 to 3 weeks in the presence of 5% carbon dioxide gas (primary culture). The same volume of a trypsin-EDTA solution was added to the flask. After the sections were treated at 37° C. for 5 minutes to peel off cells, the cells were diluted with 10% FBS-Waymouth's MB 752/1 medium and then subcultured (second generation). Subculture was successively conducted likewise whenever the SMC became confluent. In the following experiments, the cells from the 5th generation to the 12th generation were employed. After reach in confluence of cells, the cultured SMCs were cultured for 2 days in a serum-free medium to avoid influence of serum. The SMCs were then added with thrombin (1.0 U/ml) or serotonin (5 μM), followed by incubation at 37° C. for 6 hours under which bring about induction of PDGF-A mRNAs at the maximum. To prevent dissociation of ribosomes and mRNAs, cycloheximide (100 μg/ml) was added 5 minutes before cells were collected. […] Biol. Chem.", 267, 508 ff, 1992 with slight modifications. The cells, which had been collected by the treatment with trypsin, were washed with PBS containing cycloheximide (100 μg/ml). A cell precipitate was then added with 500 μl of a high-salt lysis buffer (20 mM Tris-HCl pH 7.5, 250 mM NaCl, 5 mM MgCl2, 0.1% Noni det P-40, 0.2% DOC) for homogenization. The homogenate was centrifuged under 12,000×g at 4° C. for 10 minutes. The resulting supernatant was added with 67 μl of a heparine mix (7.4 mg/ml heparine, 1.1M NaCl, 15 mM DTT and RNasin). 200 μl of the extract were layered on 5 ml of 0.5-1.25M linear sucrose gradient (which contained 20 mM Tris-HCl pH 7.4, 10 mM NaCl, 3 mM MgCl2), followed by centrifugation under 45,000 rpm for 90 minutes in a "Hitachi […]". While monitoring the absorbance at 260 nm, ten (10) fractions were obtained. […] Subsequent to incubation at 37° C. for 1 hour, each fraction was extracted once with 1/2 volume of phenol, twice with 1/2 volume aliquots of chloroform, and once with the equal volume of chloroform, whereby proteins were removed. The water layer was added with glycogen (20 μg/ml) as a coprecipitant and then with 0.03M of sodium acetate, and RNAs were caused to precipitate with 2 volumes of ethanol. After RNAs were incubated at 65° C. for 5 minutes in a solution containing 60% of formamide, 5.9% of formaldehyde and the equal volume of MOPS buffer (10 mM MOPS pH 7.0, 4 mM NaOAc, 0.5 mM EDTA), electrophoresis was conducted across 1.2% agarose gels containing the equal volume of MOPS buffer so that RNAs were. isolated. After the gel was washed with 20 volumes of SSC, RNAs were blotted overnight to a Gene Screen Plus membrane by the capillary method. Fixing of the RNAs was conducted by exposing them for 1 minute at a distance of 10 cm from […]. Using a "QuickHyb Hybridization Solution" (product of Strategene Ltd.), hybridization was conducted following the instruction manual attached to the solution. Results of autoradiography were quantitated with reference to the NIH Image. […]

PDGF-A mRNAs [5] = experiment: Northern blot analysis of PDGF-A mRNA expression in cultured rat SMCs; type: cell-based; details: vs serum-free medium
Description: SMCs were prepared following the method proposed by Ross and Klebanoff in "J. Cell. Biol.", 50, 159 ff, 1971 with partial modifications. A rat thoracic aorta was excised. After the tunica externa was peeled off, the tunica media and the tunica intima were minced into 2-3 mm^2. The minced sections were placed standstill in a 25-cm^2 flask which contained Waymouth's MB 752/1 medium containing 10% FBS and 80 ng/ml of gentamycin (product of Schering-Plough Corp.), followed by incubation at 37° C. for 2 to 3 weeks in the presence of 5% carbon dioxide gas (primary culture). The same volume of a trypsin-EDTA solution was added to the flask. After the sections were treated at 37° C. for 5 minutes to peel off cells, the cells were diluted with 10% FBS-Waymouth's MB 752/1 medium and then subcultured (second generation). Subculture was successively conducted likewise whenever the SMC became confluent. In the following experiments, the cells from the 5th generation to the 12th generation were employed.
After reach in confluence of cells, the cultured SMCs were cultured for 2 days in a serum-free medium to avoid influence of serum. The SMCs were then added with thrombin (1.0 U/ml) or serotonin (5 μM), followed by incubation at 37° C. for 6 hours under which bring about induction of PDGF-A mRNAs at the maximum. To prevent dissociation of ribosomes and mRNAs, cycloheximide (100 μg/ml) was added 5 minutes before cells were collected.
Preparation of a polysome fraction and extraction of RNAs were conducted following the method proposed by Kasper, et al. in "J. Biol. Chem.", 267, 508 ff, 1992 with slight modifications. The cells, which had been collected by the treatment with trypsin, were washed with PBS containing cycloheximide (100 μg/ml). A cell precipitate was then added with 500 μl of a high-salt lysis buffer (20 mM Tris-HCl pH 7.5, 250 mM NaCl, 5 mM MgCl2, 0.1% Noni det P-40, 0.2% DOC) for homogenization. The homogenate was centrifuged under 12,000×g at 4° C. for 10 minutes. The resulting supernatant was added with 67 μl of a heparine mix (7.4 mg/ml heparine, 1.1M NaCl, 15 mM DTT and RNasin). 200 μl of the extract were layered on 5 ml of 0.5-1.25M linear sucrose gradient (which contained 20 mM Tris-HCl pH 7.4, 10 mM NaCl, 3 mM MgCl2), followed by centrifugation under 45,000 rpm for 90 minutes in a "Hitachi RP55ST". While monitoring the absorbance at 260 nm, ten (10) fractions were obtained. To prepare samples for the extraction of RNAs, the fractions were individually added with SDS and proteinase K to give final concentrations of 1% and 0.2 mg/ml, respectively. Subsequent to incubation at 37° C. for 1 hour, each fraction was extracted once with 1/2 volume of phenol, twice with 1/2 volume aliquots of chloroform, and once with the equal volume of chloroform, whereby proteins were removed. The water layer was added with glycogen (20 μg/ml) as a coprecipitant and then with 0.03M of sodium acetate, and RNAs were caused to precipitate with 2 volumes of ethanol.
After RNAs were incubated at 65° C. for 5 minutes in a solution containing 60% of formamide, 5.9% of formaldehyde and the equal volume of MOPS buffer (10 mM MOPS pH 7.0, 4 mM NaOAc, 0.5 mM EDTA), electrophoresis was conducted across 1.2% agarose gels containing the equal volume of MOPS buffer so that RNAs were. isolated. After the gel was washed with 20 volumes of SSC, RNAs were blotted overnight to a Gene Screen Plus membrane by the capillary method. Fixing of the RNAs was conducted by exposing them for 1 minute at a distance of 10 cm from a 15-W sterilamp. Using a "QuickHyb Hybridization Solution" (product of Strategene Ltd.), hybridization was conducted following the instruction manual attached to the solution. Results of autoradiography were quantitated with reference to the NIH Image. […]

Molecule: CCC1CCN(c2ncc3c(n2)N(C)C(=O)C3)CC1 [2-(4-ethylpiperidino)-7-methyl-6-oxo-5,6-dihydro(7H)pyrro[2,3-d]pyrimidinemaleate]
- numbers of cells counted (migrated), mean ±S.D. (TMK1 cells [1]; compound 0.1 mM + EGF 10 ng/ml): 144±3.1
- numbers of cells counted (migrated), mean ±S.D. (TMK1 cells [1]; compound alone, 0.1 mM): 28.6±18.4

Molecule: EGF: epidermal growth factor
- area of the wounded region (mean±S.D.) ([2]; 0th hour): 2.06±0.06 mm2
- area of the wounded region (mean±S.D.) ([2]; 12th hour): 0.91±0.03 mm2
- area of the wounded region (mean±S.D.) ([2]; 24th hour): 0.46±0.15 mm2
- area of the wounded region (mean±S.D.) ([2]; 36th hour): 0.08±0.04 mm2
- area of the wounded region (mean±S.D.) ([2]; 48th hour): 0 mm2
- effect on migration, proliferation and restoration of the cells ([2]; EGF alone 1-10 ng/ml): promoted migration and proliferation of the cells in a concentration-dependent manner and accelerated the speed of restoration
- morphological changes (TMK1 cells [3]): significant morphological changes were observed as early as day 1, presenting scattering

Molecule: CN1C(=O)C(C)(C)c2cnc(N3CCCCC3)nc21 [2-piperidino-5,5,7-trimethyl-6-oxo-5,6-dihydro(7H)pyrro[3,4-d]pyrimidine maleate]
- numbers of cells counted (migrated), mean ±S.D. (TMK1 cells [1]; compound 0.1 mM + EGF 10 ng/ml): 147.2±13.2
- numbers of cells counted (migrated), mean ±S.D. (TMK1 cells [1]; compound alone, 0.1 mM): 33±12.6

Molecule: CN1C(=O)Cc2cnc(N3CCCCC3)nc21
- numbers of cells counted (migrated), mean ±S.D. (TMK1 cells [1]; compound 0.1 mM + EGF 10 ng/ml): 20.9±3.9
- numbers of cells counted (migrated), mean ±S.D. (TMK1 cells [1]; compound alone, 0.1 mM): 2.9±1.0

Molecule: NCCc1c[nH]c2ccc(O)cc12 [serotonin, reference compound]
- translation state of the three kinds of PDGF-A mRNAs (PDGF-A mRNAs [4]; serotonin alone): all in translated forms
- fold induction at 5 µM (PDGF-A mRNAs [5]; Rattus norvegicus, 6 h, sole addition of serotonin (5 μM), read-out: expression amount of 1.7 kb PDGF-A mRNAs compared with control): 1.7

Molecule: thrombin
- translation state of 1.7 kb, 2.3 kb and 2.9 kb PDGF-A mRNAs (PDGF-A mRNAs [4]; thrombin alone): both those in a translated form and those in the non-translated form
- expression amount of 1.7 kb PDGF-A mRNAs compared with control (PDGF-A mRNAs [5]; sole addition of thrombin (1.0 U/ml)): 1.5 times
